The values below come from patent US9301963B2, “Treatment tool and method of gradual withdrawal from bezodiazepine dependency” (priority 2011, dated 2016).

Series [1] can be described thus: Solvent / liquid delivery medium in which the benzo is soluble.
Series [2] concerns benzodiazepine-dependent patient. Briefly: Gradual liquid micro-taper withdrawal from benzodiazepine dependency in patients. Particulars: for daily dosage at which withdrawal symptoms once again emerge during the taper: patients tapered at the found daily reduction rate, typical value.
The next series has as its system CYP 450 enzymes. The settings on record: cited from earlier work.
Series [3] relates to benzodiazepine-dependent patient. Briefly: Step taper method (comparison, FIG. 3). Particulars: step taper abruptly halted at 0.5 mg.

Take `Cc1nnc2n1-c1ccc(Cl)cc1C(c1ccccc1)=NC2` [Alprazolam]: the correct solvent result in series [1] is “ethanol”.
For the molecule `CNC1=Nc2ccc(Cl)cc2C(c2ccccc2)=[N+]([O-])C1` [Chlordiazepoxide], the “daily dosage at which withdrawal symptoms once again emerge during the taper” value in series [2] is recorded as ~12.5 mg.
For the molecule `O=C1CN=C(c2ccccc2Cl)c2cc([N+](=O)[O-])ccc2N1` [Clonazepam], the “daily dosage at which withdrawal symptoms once again emerge during the taper” value in series [2] is listed as ~0.25 mg. Further, in the series with CYP 450 enzymes, the half-life result is reported as “relatively long half-life” and the metabolites result is “no active metabolites”. Besides, the “suitability of fat/water emulsion as liquid in which the benzo is soluble” value in series [1] (4% fat homogenized milk) is on record as “suitable”.
With `CN1C(=O)CN=C(c2ccccc2)c2cc(Cl)ccc21` [Diazepam], the “daily dosage cut that is often the limit” value in series [2] (daily reduction, increased gradually from 0.05 mg) is 0.1 mg. For the same molecule, the “post withdrawal syndrome after taper” value in series [2] (method of the patent, line 310, taper to zero milligrams) is “eliminates the post withdrawal syndrome”. In addition, the “symptom escalation during taper (FIG. 3)” value in series [2] (patient on 14.0 mg starting dose, method of the patent, line 310) is “no symptom escalation from dosage reduction”. Further, the “daily dosage at which withdrawal symptoms once again emerge during the taper” value in series [2] was ~5.0 mg. In addition, in series [1] (ethanol), the “amount of ethanol to create a useable solution” value was “about 0.19 mL ethanol per 1.0 mg”. For the same molecule, the “post withdrawal syndrome after step taper” value in series [3] is listed as “causes the feared post withdrawal syndrome”.
Regarding `O=C1Nc2ccc(Cl)cc2C(c2ccccc2Cl)=NC1O` (centres unmarked) [Lorazepam], in the series on CYP 450 enzymes, the “metabolism by CYP 450 enzyme pathways” value is reported as “not metabolized by the CYP 450 enzyme pathways”.
As to `O=C1Nc2ccc(Cl)cc2C(c2ccccc2)=NC1O` (centres unmarked) [Oxazepam], the “metabolism by CYP 450 enzyme pathways” value in the series on CYP 450 enzymes is listed as “not metabolized by the CYP 450 enzyme pathways”.
